Results: US5583158A, “Prostaglandin E1 analogues” (Taisho Pharmaceutical Co., Ltd., priority 1992, dated 1996)

Test system: rabbit platelet aggregation
Assay: Test for inhibition of rabbit platelet aggregation (ADP-induced, platelet-rich plasma, method of Born)
Format: cell-based, rabbit (New Zealand White-strain)
Settings: Oryctolagus cuniculus, ADP final concentration 5 μM, 37° C., 3 minutes preincubation, maximum aggregation within 5 minutes
Procedure: Test Example [Test for inhibition of rabbit platelet aggregation]
New Zealand White-strain rabbits (groups of four rabbits each weighing 2.5-4.0 to kg) were tested. Blood was collected from the common carotid artery of the rabbits under on ether anesthesic, and mixed with 3.2to % sodium citrate in volume ratio of 9:1. The blood was centrifuged at 1,100 rpm for 15 minutes to give a platelet-rich plasma (PRP) as a supernatant.
Blood platelet aggregation was determined according to the method of Born [Nature, Vol. 194, p. 927 (1962)]. To 275 to μl of PRP was added 1 μl of a solution of various concentrations of a test compound dissolved in ethanol; the mixture was stirred at 1,000 rpm at 37° C. for 3 minutes; then, in this state, 25 μl of an aggregation-inducing agent [adenosine diphosphate (ADP), final concentration: 5 μM] was added thereto to induce platelet aggregation; and by using an aggregometer, there was determined the maximum aggregation rate (the maximum change in light transmission within 5 minutes from the induction of platelet aggregation).
The aggregatian inhibition rate of the test compound was calculated from the maximum aggregation rate in the presence test compound relative to the maximum aggregation rate when ethanol was used instead of the solution of the test compound; the IC50 value of the test compound was determined from the concentration response curve.

| IC50 | SMILES |
| --- | --- |
| 0.6 nM | CCCC[C@@H](C)C[C@H](O)C#C[C@H]1[C@H](O)CC(=O)[C@@H]1CCCCOCC(=O)OC [Compound 1, (17R)-17,20-Dimethyl-13,14-didehydro-3-oxa-PGE1 methyl ester] |
| 0.66 nM | CCCC[C@@H](C)C[C@H](O)C#C[C@H]1[C@H](O)CC(=O)[C@@H]1CCCCOCC(=O)O [Compound 2, (17R)-17,20-Dimethyl-13,14-didehydro-3-oxa-PGE1] |
| 0.39 nM | COC(=O)CSCCCC[C@H]1C(=O)C[C@@H](O)[C@@H]1C#C[C@@H](O)C[C@@H](C)CCC=C(C)C [Compound 3, (17S)-20-Isopropylidene-17-methyl-13, 14-didehydro-3-thia-PGE1 methyl ester] |
| 0.26 nM | CC(C)=CCC[C@H](C)C[C@H](O)C#C[C@H]1[C@H](O)CC(=O)[C@@H]1CCCCSCC(=O)O [Compound 4, (17S)-20-Isopropylidene-17-methyl-13,14-didehydro-3-thia-PGE1] |
| 0.67 nM | COC(=O)COCCCC[C@H]1C(=O)C[C@@H](O)[C@@H]1C#C[C@@H](O)C[C@H](C)CCC=C(C)C [Compound 5, (17R)-20-Isopropylidene-17-methyl-13, 14-didehydro-3-oxa-PGE1 methyl ester] |
| 1.27 nM | CC(C)=CCC[C@@H](C)C[C@H](O)C#C[C@H]1[C@H](O)CC(=O)[C@@H]1CCCCOCC(=O)O [Compound 6, (17R)-20-Isopropylidene-17-methyl-13, 14-didehydro-3-oxa-PGE1] |
| 134 nM | COC(=O)COCCCC[C@H]1C(=O)C[C@@H](O)[C@@H]1C#C[C@@H](O)CC1CCCCC1 [Control B, reference compound] |
| 911 nM | CCCCC(C)[C@H](O)C#C[C@H]1[C@H](O)CC(=O)[C@@H]1CCCCSCC(=O)O (stereo partly drawn) [Control C, reference compound] |
| 1520 nM | CCCCC(C)(C)C(O)C#C[C@H]1[C@H](O)CC(=O)[C@@H]1CCCCOCC(=O)OC (stereo partly drawn) [Control D, reference compound] |
